Laboratory results from PMC9309159, “Identification of heptapeptides targeting a lethal bacterial strain in septic mice through an integrative approach” (Signal Transduction and Targeted Therapy, 2022).

Columns and labels:
MSI001-Amp^r bacteria = assay: Growth of ampicillin-resistant MSI001 bacteria; type: cell-based, Escherichia coli; settings: 1×10^3 CFU/ml, peptide 1 μmol/L, 37°C, 3 hours, colony count, n=3
Procedure: (§1) Pseudomonas aeruginosa (ATCC27853) was purchased from American Type Culture Collection (ATCC) and cultured in Luria Broth (LB) medium with shaking at 37 °C. For construction of ampicillin-resistant MSI001 strain (MSI001-Amp^r), the pET14b plasmid carrying Amp^r marker gene was introduced into the wild type MSI001 strain. The MSI001-Amp^r strain was cultured in LB medium supplemented with Ampicillin of 100 µg/ml at 37 °C.
(§2) Figure S4. Inhibitory effect of LL37 and VTK-LL37 fusion peptides on bacterial growth. a Effect of VTK-LL37 on the growth of Ampicillin resistant (Amp^r) MSI001 bacteria. The bacterial strain MSI001 was transfected with pET14b plasmid to produce an Ampicillin resistant (Amp^r) MSI001 strain. The VTK-LL37 or LL37 peptide was added to the cultured MSI001-Amp^r bacteria (1×10^3 CFU/ml) with a final concentration of 1 μmol/L. After incubation with the VTK-LL37 or LL37 peptides at 37°C for 3 hours, bacterial colonies were counted. b Effect of VTK-LL37 on the growth of Pseudomonas aeruginosa. The bacterial colonies of Pseudomonas aeruginosa were counted as above. […]

CLP mice = assay: Survival of CLP mice; type: in vivo, C57BL/6 mice; settings: peptide 0.2 nmol/g i.v. 1 h after CLP; observed up to 168 h; Kaplan-Meier; n = 15
Text: (§3) Wild-type C57 mice were intraperitoneally injected with MSI001 bacteria (6 × 10^6 CFU/g body weight) to reproduce a sepsis model. […] Normal saline (NS) was used as control. […] One hour after CLP modeling, the mice were intravenously injected with LL37 or VTK-LL37 peptide at a dosage of 0.2 nmol/g body weight. Equal volume of normal saline (NS) was used as control. […] The mice were intraperitoneally injected with MSI001 bacteria. One hour later, the mice were subjected to tail vein injection (TVI) with VTK-LL37 (VTK-LL37 group), LL37 (LL37 group) or an equivalent volume of NS (sepsis group). Wild-type mice without modeling were used as controls (control group). The blood bacteria were quantitated as colony forming units (CFU) 12 h after injection of bacteria. n = 8. *P < 0.05, compared to control; ^#P < 0.05, compared to sepsis group^; ΔP < 0.05, compared to LL37 group. Results are expressed as the median with range. d Suppression of VTK-LL37 on the production of HMGB1 in the blood of septic mice. […] Twelve hours after bacterial injection, HMGB1 in the serum was quantitated by ELISA. n = 8. *P < 0.05, compared to control; ^#P < 0.05, compared to sepsis group; ^ΔP < 0.05, compared to LL37 group^. Results are expressed as the mean ± SD. e, f Protective effect of VTK-LL37 against organ damage in mice subjected to bacterial injection. […]

E. coli MSI001 [1] = assay: Survival of mice subjected to septic modeling with MSI001; type: in vivo, C57BL/6 mice; settings: MSI001 6 × 10^6 CFU/g i.p.; peptide 0.2 nmol/g i.v. 1 h later; observed up to 168 h; Kaplan-Meier; n = 20
Text: as §3

E. coli MSI001 [2] = assay: In vivo antibacterial assay (blood CFU); set-up: species or system C57BL/6 mice; settings: MSI001 6 × 10^6 CFU/g i.p.; peptide 0.2 nmol/g tail vein 1 h later; blood CFU at 12 h; n = 8
Text: as §3

[3] = tested on: Pseudomonas aeruginosa (ATCC27853); assay: Growth of Pseudomonas aeruginosa; type: cell-based; settings: peptide 1 μmol/L, 37°C, 3 hours, colony count, n=3
Procedure: as §1, §2

CVTKLGSLCVPGVGLLGDFFRKSKEKIGKEFKRIVQRIKDFLRNLVPRTES [VTK-LL37]
inhibitive effect on growth of ampicillin-resistant MSI001 (MSI001-Amp^r bacteria): more significant inhibitive effect on the bacterial growth of the ampicillin-resistant MSI001 bacteria in comparison with LL37 | survival of CLP mice (CLP mice): significantly increased the survival of sepsis mice induced by CLP modeling | survival of septic mice (E. coli MSI001 [1]): significantly increased the survival of septic mice | suppression of bacterial growth in blood of septic mice (E. coli MSI001 [2]): stronger capability to suppress the bacterial growth of E. coli MSI001 in the blood of septic mice than LL37 | inhibitory effect on growth of Pseudomonas aeruginosa [3]: showed inhibitory effect on the growth of Pseudomonas aeruginosa
